Reference: patent US7566712B2, “Biaryl piperazinyl-pyridine analogues” (Neurogen Corporation, priority 2003, dated 2009)

target: T1, human capsaicin receptor (Homo sapiens, UniProt Q8NER1); assay: Calcium mobilization assay, determination of antagonist activity (Example 6); type: cell-based; conditions: Table II; IC50 determined as described in Example 6
T1 construct: pBK-CMV expression construct encoding the full length human capsaicin receptor; expressed in transfected cells
Method: A cDNA encoding full length human capsaicin receptor (SEQ ID NO: 1, 2 or 3 of U.S. Pat. No. 6,482,611) was subcloned in the plasmid pBK-CMV (Stratagene, La Jolla, Calif.) for recombinant expression in mammalian cells.
Human embryonic kidney (HEK293) cells were transfected with the pBK-CMV expression construct encoding the full length human capsaicin receptor using standard methods. The transfected cells were selected for two weeks in media containing G418 (400 μg/ml) to obtain a pool of stably transfected cells. Independent clones were isolated from this pool by limiting dilution to obtain clonal stable cell lines for use in subsequent experiments.
This Example illustrates representative calcium mobilization assays for use in evaluating test compounds for agonist and antagonist activity.
Cells transfected with expression plasmids (as described in Example 4) and thereby expressing human capsaicin receptor are seeded and grown to 70-90% confluency in FALCON black-walled, clear-bottomed 96-well plates (#3904, BECTON-DICKINSON, Franklin Lakes, N.J.). The culture medium is emptied from the 96 well plates and FLUO-3 AM calcium sensitive dye (Molecular Probes, Eugene, Oreg.) is added to each well (dye solution: 1 mg FLUO-3 AM, 440 μL DMSO and 440 pi 20% pluronic acid in DMSO, diluted 1:250 in Krebs-Ringer HEPES (KRH) buffer (25 mM HEPES, 5 mM KCl, 0.96 mM NaH2PO4, 1 mM MgSO4, 2 mM CaCl2, 5 mM glucose, 1 mM probenecid, pH 7.4), 50 μl diluted solution per well). Plates are covered with aluminum foil and incubated at 37° C. for 1-2 hours in an environment containing 5% CO2. After the incubation, the dye is emptied from the plates, and the cells are washed once with KRH buffer, and resuspended in KRH buffer.
To measure the ability of a test compound to agonize or antagonize a calcium mobilization response in cells expressing capsaicin receptors to capsaicin or other vanilloid agonist, the EC50 of the agonist capsaicin is first determined. An additional 20 μl of KRH buffer and 1 μl DMSO is added to each well of cells, prepared as described above. 100 μl capsaicin in KRH buffer is automatically transferred by the FLIPR instrument to each well. Capsaicin-induced calcium mobilization is monitored using either FLUOROSKAN ASCENT (Labsystems; Franklin, Mass.) or FLIPR (fluorometric imaging plate reader system; Molecular Devices, Sunnyvale, Calif.) instruments. Data obtained between 30 and 60 seconds after agonist application are used to generate an 8-point concentration response curve, with final capsaicin concentrations of 1 nM to 3 μM. KALEIDAGRAPH software (Synergy Software, Reading, Pa.) is used to fit the data to the equation: y=a*(1/(1+(b/x)^c)) to determine the 50% excitatory concentration (EC50) for the response. In this equation, y is the maximum fluorescence signal, x is the concentration of the agonist or antagonist (in this case, capsaicin), a is the Emax, b corresponds to the EC50 value and c is the Hill coefficient. Determination of Agonist Activity
Test compounds are dissolved in DMSO, diluted in 20 μl KRH buffer so that the final concentration of test compounds in the assay well is between 1 μM and 5 μM, and added to cells prepared as described above. The 96 well plates containing prepared cells and test compounds are incubated in the dark, at room temperature for 0.5 to 6 hours. It is important that the incubation not continue beyond 6 hours. Just prior to determining the fluorescence response, 100 pi capsaicin in KRH buffer at twice the EC50 concentration determined as described above is automatically added by the FLIPR instrument to each well of the 96 well plate for a final sample volume of 200 μl and a final capsaicin concentration equal to the EC50. The final concentration of test compounds in the assay wells is between 1 μM and 5 μM. […]

T1 sequence (Q8NER1 whole entry): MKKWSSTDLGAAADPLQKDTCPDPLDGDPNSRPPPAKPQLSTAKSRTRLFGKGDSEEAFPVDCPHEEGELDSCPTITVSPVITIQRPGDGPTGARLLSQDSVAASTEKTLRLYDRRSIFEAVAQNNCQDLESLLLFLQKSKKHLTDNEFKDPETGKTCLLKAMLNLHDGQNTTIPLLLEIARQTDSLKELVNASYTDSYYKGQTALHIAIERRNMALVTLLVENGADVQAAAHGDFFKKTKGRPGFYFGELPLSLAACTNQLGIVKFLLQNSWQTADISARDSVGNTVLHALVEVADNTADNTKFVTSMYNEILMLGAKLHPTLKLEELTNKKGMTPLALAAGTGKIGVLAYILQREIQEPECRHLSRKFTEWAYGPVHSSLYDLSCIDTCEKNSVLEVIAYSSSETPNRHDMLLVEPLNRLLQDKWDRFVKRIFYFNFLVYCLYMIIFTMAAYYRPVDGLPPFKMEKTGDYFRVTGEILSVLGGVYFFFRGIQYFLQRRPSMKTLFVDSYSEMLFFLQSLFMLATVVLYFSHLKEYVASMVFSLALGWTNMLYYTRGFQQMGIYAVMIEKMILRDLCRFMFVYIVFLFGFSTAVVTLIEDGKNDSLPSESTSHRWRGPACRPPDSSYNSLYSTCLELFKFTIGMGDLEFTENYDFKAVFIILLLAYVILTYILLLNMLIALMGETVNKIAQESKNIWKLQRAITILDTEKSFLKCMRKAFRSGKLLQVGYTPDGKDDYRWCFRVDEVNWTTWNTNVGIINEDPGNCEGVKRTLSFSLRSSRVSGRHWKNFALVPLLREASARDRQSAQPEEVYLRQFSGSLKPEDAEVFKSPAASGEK

IC50, ≤ 1000 nM:
Cc1cccnc1N1CCN(c2cc(-c3cccc(OC(F)(F)F)c3)nc(N3CCOCC3)n2)[C@H](C)C1 [Example 533, 4-{4-[(2R)-2-methyl-4-(3-methylpyridin-2-yl)piperazin-1-yl]-6-[3-(trifluoromethoxy)phenyl]pyrimidin-2-yl}morpholine]
C=CCN1CCN(c2nc(-c3cccc(Cl)c3)nc(N3CCN(c4ncccc4C(F)(F)F)CC3)n2)CC1 [Example 441, 2-(4-allylpiperazin-1-yl)-4-(3-chlorophenyl)-6-{4-[3-(trifluoromethyl)pyridin-2-yl]piperazin-1-yl}-1,3,5-triazine]
COc1ccc(-c2cc(N3CCN(c4ncccc4C(F)(F)F)C[C@H]3C)nc(N3CCOCC3)n2)cc1F [Example 541, 4-(4-(3-fluoro-4-methoxyphenyi)-6-{(2R)-2-methyl-4-[3-(trifluoromethyl)pyridin-2-yl]piperazin-1-yl}pyrimidin-2-yl)morpholine]
CCOc1cccc(-c2cc(N3CCN(c4ncccc4C)C[C@H]3C)nc(N3CCOCC3)n2)c1 [Example 529, 4-{4-(3-ethoxyphenyl)-6-[(2R)-2-methyl-4-(3-methylpyridin-2-yl)piperazin-1-yl]pyrimidin-2-yl}morpholine]

same assay, conditions: Table II; determined as described in Example 6 (antagonist activity); "*" = 1 micromolar or less

IC50, ≤ 1000 nM:
C[C@@H]1CCCN1c1cc(-c2ccc(Cl)c(F)c2)nc(N2CCN(c3nccnc3Cl)C[C@@H]2C)n1 [Example 963, 4-(4-chloro-3-fluorophenyl)-2-[(2S)-4-(3-chloropyrazin-2-yl)-2-methylpiperazin-1-yl]-6-[(2R)-2-methylpyrrolidin-1-yl]pyrimidine]
Cc1cc(-c2cc(N3CCN(c4ncccc4Cl)C[C@@H]3C)nc(N3CCOCC3)n2)ccc1F [Example 904, 4-[4-[(2S)-4-(3-chloropyridin-2-yl)-2-methylpiperazin-1-yl]-6-(4-fluoro-3-methylphenyl)pyrimidin-2-yl]morpholine]
CC(=O)c1ccc(-c2cc(N3CCN(c4ncccc4Cl)C[C@H]3C)nc(N3CCCC3)n2)cc1 [Example 856, 1-(4-{6-[(2R)-4-(3-chloropyridin-2-yl)-2-methylpiperazin-1-yl]-2-pyrrolidin-1-ylpyrimidin-4-yl)phenyl)ethanone]
CC1CCCN1c1nc(-c2ccc(F)c(F)c2)cc(N2CCN(c3ccncc3Cl)C[C@H]2C)n1 (stereo partly shown) [Example 828, 4-[4-(3-chloropyridin-4-yl)-2-methylpiperazin-1-yl]-6-(3,4-difluorophenyl)-2-(2-methylpyrrolidin-1-yl)pyrimidine]
CCCN1CCN(c2nc(-c3ccc(F)c(Cl)c3)cc(N3CCN(c4ncccc4C(F)(F)F)CC3)n2)C(=O)C1 [Example 885, 1-(4-(3-chloro-4-fluorophenyl)-6-{4-[3-(trifluoromethyl)pyridin-2-yl]piperazin-1-yl}pyrimidin-2-yl)-4-propylpiperazin-2-one]
C[C@@H]1CN(c2ncccc2Cl)CCN1c1cc(-c2cccnc2)nc(N2CCCC2)n1 [Example 883, 4-[(2R)-4-(3-chloropyridin-2-yl)-2-methylpiperazin-1-yl]-6-pyridin-3-yl-2-pyrrolidin-1-ylpyrimidine]
C[C@@H]1CCCN1c1cc(-c2ccc(F)c(Cl)c2)nc(N2CCN(c3ncccc3Cl)C[C@H]2C)n1 [Example 941, 4-(3-chloro-4-fluorophenyl)-2-[(2R)-4-(3-chloropyridin-2-yl)-2-methylpiperazin-1-yl]-6-[(2R)-2-methylpyrrolidin-1-yl]pyrimidine]
CC1CN(c2nccnc2Cl)CCN1c1nc(-c2ccc(F)c(Cl)c2)cc(N2CCC[C@H]2C)n1 (stereo in doubt) [Example 943, 4-(3-chloro-4-fluorophenyl)-2-[(2R)-4-(3-chloropyrazin-2-yl)-2-methylpiperazin-1-yl]-6-[(2R)-2-methylpyrrolidin-1-yl]pyrimidine]
C[C@@H]1CN(c2ncccc2Cl)CCN1c1cc(-c2ccc(F)cc2)nc(N2CCCC2)n1 (stereo in doubt) [Example 841, 4-[4-(3-chloropyridin-2-yl)-2-methylpiperazin-1-yl]-6-(4-fluorophenyl)-2-pyrrolidin-1-ylpyrimidine]
Cc1cc(C#N)cnc1N1CCN(c2cc(-c3ccc(F)cc3)nc(N3CCCC3C)n2)[C@H](C)C1 (stereo partly shown) [Example 932, 6-{4-[6-(4-fluorophenyl)-2-(2-methylpyrrolidin-1-yl)pyrimidin-4-yl]-3-methylpiperazin-1-yl}-5-methylnicotinonitrile]
Cc1cccnc1N1CCN(c2cc(-c3ccc(F)c(Cl)c3)nc(N3CCOCC3)n2)[C@H](C)C1 [Example 852, 4-{4-(3-chloro-4-fluorophenyl)-6-[(2R)-2-methyl-4-(3-methylpyridin-2-yl)piperazin-1-yl]pyrimidin-2-yl}morpholine]

same assay, conditions: Table II; determined as described in Example 6; class symbol

IC50, ≤ 1000 nM:
Cc1ccccc1-c1nc(N2CCOCC2)nc(N2CCN(c3ccccn3)CC2)n1 [Example 268, 2-(2-methylphenyl)-4-morpholin-4-yl-6-(4-pyridin-2-ylpiperazin-1-yl)-1,3,5-triazine]

same assay, conditions: determined as described in Example 6 (calcium mobilization, antagonist activity); Table II

IC50, ≤ 1000 nM:
C[C@@H]1CN(c2ncccc2Cl)CCN1c1cc(-c2ccc(F)c(Cl)c2)nc(N2CCCC2)n1 [Example 731, 4-(3-chloro-4-fluorophenyl)-6-[(2R)-4-(3-chloropyridin-2-yl)-2-methylpiperazin-1-yl]-2-pyrrolidin-1-ylpyrimidine]
Cc1cc(-c2cc(N3CCN(c4ncccc4Cl)C[C@H]3C)nc(N3CCCCC3)n2)ccc1F [Example 720, 4-[(2R)-4-(3-chloropyridin-2-yl)-2-methylpiperazin-1-yl]-6-(4-fluoro-3-methylphenyl)-2-piperidin-1-ylpyrimidine]
Cc1cc(-c2cc(N3CCN(c4ncccc4Cl)CC3)nc(N3CCCCC3C)n2)ccc1F (stereo not shown) [Example 744, 4-[4-(3-chloropyridin-2-yl)piperazin-1-yl]-6-(4-fluoro-3-methylphenyl)-2-(2-methylpiperidin-1-yl)pyrimidine]
COC[C@@H]1CCCN1c1nc(-c2ccc(F)c(C)c2)cc(N2CCN(c3ncccc3Cl)C[C@H]2C)n1 [Example 729, 4-[(2R)-4-(3-chloropyridin-2-yl)-2-methylpiperazin-1-yl]-6-(4-fluoro-3-methylphenyl)-2-[(2S)-2-(methoxymethyl)pyrrolidin-1-yl]pyrimidine]
O=C1CCCN1c1nc(-c2ccc(F)c(Cl)c2)cc(N2CCN(c3ncccc3C(F)(F)F)CC2)n1 [Example 668, 1-(4-(3-chloro-4-fluorophenyl)-6-{4-[3-(trifluoromethyl)pyridin-2-yl]piperazin-1-yl}pyrimidin-2-yl)pyrrolidin-2-one]
Cc1cc(-c2cc(N3CCN(c4ncccc4Cl)CC3)nc(N3CCCC3C)n2)ccc1F (stereo not shown) [Example 698, 4-[4-(3-chloropyridin-2-yl)piperazin-1-yl]-6-(4-fluoro-3-methylphenyl)-2-(2-methylpyrrolidin-1-yl)pyrimidine]
